According to PMC3409115, “Diverse Inhibitor Chemotypes Targeting Trypanosoma cruzi CYP51” (PLoS Neglected Tropical Diseases, 2012):
Like-named read-outs stand apart in the source and are kept apart here.

What was measured:
[1] = test system: host cell (skeletal myoblasts, bovine embryo skeletal muscle or C2C12); test: Host cell toxicity in the cross-validation assay; assay type: cell-based; details: host cells in cross-validation assay, up to 10 µM
Protocol: (§1) Compound cross-validation in T. cruzi infected skeletal myoblasts (bovine embryo skeletal muscle or C2C12 lineage) was performed according to the protocol adapted from Engel and co-authors. Compounds stored as 10 mM stocks in DMSO were freshly diluted immediately prior to use. […] To prepare plates for the assay, skeletal myoblasts cultured in […] flasks were washed once with phosphate buffered saline (PBS) and then incubated with 0.25% trypsin in PBS for 1–3 minutes for detachment. The trypsin solution was removed and myoblasts were released from the flask bottom. Fresh medium was added and cell concentration was determined using a Neubauer hemocytometer. Myoblasts in 50 µl of culture medium were transferred to the clear-bottom wells of black 96-well plates (Greiner Bio-One, #655090) at a density of 1500 cells/well and infected with 50 µl trypomastigote culture at 7500 parasites/well (1∶5 ratio). The cells were allowed to adhere and spread for 24 h in the incubator before the media was removed and 100 µl of fresh medium containing 0, 0.04, 0.12, 0.37, 1.10, 3.30 or 10 µM of test compound was added to each well, followed by 72 h incubation at 37°C in an atmosphere of 5% CO2. Posaconazole was used as a positive control at the same concentrations as the test compounds. The cells were then fixed by adding 100 µl/well of 8% formaldehyde in PBS, resulting in a 4% working concentration of formaldehyde. To stain the nucleus of the host cell and the nucleus and kinetoplast of parasites, cell membranes were first permeabilized by washing once with 100 µl of 0.1% Triton X-100 in PBS, then treated for 1 h with 0.2 µg/ml of the fluorescent DNA dye, 4,6-diamidino-2-phenylindole (DAPI), followed by one wash with PBS. The fixed plates were kept at 4°C and protected from light until images were acquired.
(§2) Plates were allowed to equilibrate to room temperature and images were acquired by the IN Cell Analyzer 2000 (GE Healthcare) with a 20× objective, 5 fields per well, with 350/50 nm and 460/40 nm fluorescent excitation and emission filters. In the absence of drug cytotoxicity, at least 800 cells were imaged and counted per well. The images were processed and analyzed by IN Cell Analyzer Developer 1.6 software. The size parameters used to segment host and parasite organelles were 125 µm^2 for host nucleus, and 1–2 µm^2 for parasite nucleus/kinetoplast. Since DAPI also strongly stains host heterochromatin regions that display as shapes resembling parasites ( Figure 3 ), particles co-localized to host nuclei were excluded from quantification, while parasite aggregates near the host nucleus were counted as infected cells. Numbers of host cells and intracellular amastigotes were determined based on host cell and parasite nucleus and parasite kinetoplast quantification, providing a measure of growth inhibition during the first 72 h of post-infection treatment compared to untreated controls.
^aToxicity was assessed as the highest percentage of host cell growth inhibition caused by compound treatment. Scores are assigned as 1-<20%; 2-21-30%; 3- 31-40%; 4-41-50% and 5->50% growth inhibition.

[2] = test system: T. cruzi-infected skeletal myoblasts (intracellular amastigotes); test: Hit cross-validation in T. cruzi-infected mammalian cells (image-based assay); assay type: cell-based, Trypanosoma cruzi
Protocol: Bovine embryo skeletal muscle cells or mouse C2C12 myoblasts (ATCC#CRL-1772) used in the cross-validation assay, were cultivated respectively in RPMI 1640 medium supplemented with 5% horse serum and Dulbecco's Modified Eagle's Medium H-21 containing 4.5 g/l glucose (DMEM H-21) (Cell Culture Facility, UCSF), supplemented with 5% fetal bovine serum (FBS) (Sigma Chemical Co., St. Louis, MO, USA), 25 mM HEPES, 2 mM L-glutamine, 100 U/ml penicillin, 100 µg/ml streptomycin. T. cruzi CAI-72 trypomastigotes were obtained from supernatant of infected cultures 4 to 7 days post-infection. Cultures were maintained at 37°C in an atmosphere of 5% CO2. To harvest parasites, the supernatant of infected cultures containing released trypomastigotes was collected and centrifuged at 600 rpm for 5 min to remove cell debris; the pellet was then discarded and the trypomastigotes remaining in the media were concentrated by spinning the culture tubes at 3300 rpm for 15 minutes. The parasite pellet was re-suspended in 2–5 ml of fresh media. Trypomastigote concentration was determined using a Neubauer hemocytometer.
as §1
as §2, with “cells.” for “cells. Numbers of host cells and intracellular amastigotes were determined based on host cell and parasite nucleus and parasite kinetoplast quantification, providing a measure of growth inhibition during the first 72 h of post-infection treatment compared to untreated controls.”

T. cruzi CYP51 = target: T1, T. cruzi CYP51 (Trypanosoma cruzi, UniProt Q7Z1V1); test: HTS spectral-mode binding screen, type II difference spectra scored 0-5
T1 construct: had the first 21 residues upstream of K22 replaced with the fragment MAKKKKK; His6 (C); made in house
T1 sequence (Q7Z1V1 15-481, looked up, natural form): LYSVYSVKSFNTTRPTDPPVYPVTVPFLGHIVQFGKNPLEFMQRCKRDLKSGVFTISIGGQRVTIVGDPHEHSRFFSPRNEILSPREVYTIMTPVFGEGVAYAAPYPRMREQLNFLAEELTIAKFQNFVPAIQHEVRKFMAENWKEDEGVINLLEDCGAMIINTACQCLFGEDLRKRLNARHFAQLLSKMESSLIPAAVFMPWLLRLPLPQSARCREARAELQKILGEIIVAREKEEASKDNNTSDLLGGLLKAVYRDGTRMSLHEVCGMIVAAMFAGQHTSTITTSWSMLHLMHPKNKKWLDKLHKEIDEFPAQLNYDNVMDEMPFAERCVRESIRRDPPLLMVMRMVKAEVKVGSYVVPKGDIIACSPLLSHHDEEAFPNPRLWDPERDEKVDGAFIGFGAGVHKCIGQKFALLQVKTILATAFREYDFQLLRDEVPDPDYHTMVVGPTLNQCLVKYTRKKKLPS

[3] = Trypanosoma cruzi, Myoblast, 72 h, read-out: EC50 against T. cruzi parasites in HTS assay used to rank order the hits
[4] = spectral mode, four serial dilutions 2 µM to 12.5 µM, 2 µM CYP51
[5] = Trypanosoma cruzi, Myoblast, 72 h, T. cruzi-infected myoblasts, 72 h treatment, read-out: EC50 against T. cruzi parasites in HTS assay used to rank order the hits
[6] = T. cruzi-infected myoblasts, 72 h treatment, read-out: EC50 against T. cruzi parasites in HTS assay used to rank order the hits
[7] = type II difference spectra scored 0-5, second highest rated hit compound cluster

O=P(Nc1cccnc1)(Oc1ccccc1Cl)Oc1ccccc1Cl [Compound 41] was tested, and the “Toxicity score (highest percentage of host cell growth inhibition)” value [1] was 1 (1-<20%), the EC50 [2, 3] was 7.73 µM and the HTS binding score (T. cruzi CYP51; [4]) was 5.

For Cc1ccc(OCCCn2ccnc2)c(C)c1 [Compound 45], the “Toxicity score (highest percentage of host cell growth inhibition)” value [1] was 3 (3- 31-40%), the EC50 [2, 5] was 8.01 µM and the HTS binding score (T. cruzi CYP51; [4]) was 5.

OC(/C=C/c1cccc(C(F)(F)F)c1)(Cn1ccnc1)c1cccnc1 (stereo not shown) [Compound 23] was tested, and the “Toxicity score (highest percentage of host cell growth inhibition)” value [1] was 1 (1-<20%), the EC50 [2, 3] was 2.89 µM and the HTS binding score (T. cruzi CYP51; [4]) was 1.

With N#CC1=C(N)OC2=C(C(=O)CC(c3ccccc3)C2)C1c1cccnc1 (stereo not shown) [Compound 7] the “Toxicity score (highest percentage of host cell growth inhibition)” value [1] was 4 (4-41-50%), the EC50 [2, 6] was 0.667 µM and the EC50 [2, 5] was 0.67 µM. The HTS binding score (T. cruzi CYP51; [4]) was 3 and the HTS binding score (T. cruzi CYP51; [7]) was 3.

With OC(/C=C/c1ccccc1)(Cn1ccnc1)c1ccncc1 (stereo not shown) [Compound 12] the “Toxicity score (highest percentage of host cell growth inhibition)” value [1] was 1 (1-<20%), the EC50 [2, 3] was 1.1 µM and the HTS binding score (T. cruzi CYP51; [4]) was 1.

With CCc1ccc(-c2cc3c(=O)n(CC(=O)NCc4cccnc4)nc(C)n3n2)cc1 [Compound 42] the “Toxicity score (highest percentage of host cell growth inhibition)” value [1] was 3 (3- 31-40%), the EC50 [2, 3] was 7.75 µM and the HTS binding score (T. cruzi CYP51; [4]) was 2.

For COc1ccc(CNc2nc3ccccc3c3nc(-c4ccncc4)nn23)cc1 [Compound 15], the “Toxicity score (highest percentage of host cell growth inhibition)” value [1] was 3 (3- 31-40%), the EC50 [2, 3] was 1.93 µM and the EC50 ([2]; Trypanosoma cruzi, Myoblast, 72 h, read-out: EC50 averaged from two independent cross-validation assays for individually repurchased hits) was 1.93 µM. The HTS binding score (T. cruzi CYP51; [4]) was 5.

In the case of OC(c1ccccc1)(c1ccccc1)c1c[nH]cn1 [Compound 47], the “Toxicity score (highest percentage of host cell growth inhibition)” value [1] is reported as 2 (2-21-30%), the EC50 [2, 3] is reported as 8.22 µM and the HTS binding score (T. cruzi CYP51; [4]) is reported as 3.

With CCOC(=O)C1=C(C)N(C)C(C)=C(C(=O)OCC)C1c1ccncc1 [Compound 29] the “Toxicity score (highest percentage of host cell growth inhibition)” value [1] was 1 (1-<20%), the EC50 [2, 3] was 5.18 µM and the HTS binding score (T. cruzi CYP51; [4]) was 5.

For COC(=O)C1=C(C)N(Cc2cccnc2)C(=O)/C1=C\c1ccccc1OCc1ccccc1 [Compound 53], the “Toxicity score (highest percentage of host cell growth inhibition)” value [1] was 1 (1-<20%), the EC50 [2, 3] was 9.06 µM and the HTS binding score (T. cruzi CYP51; [4]) was 3.

For c1ccc(CC(NCc2ccncc2)c2ccccc2)cc1 (stereo not shown) [Compound 27], the “Toxicity score (highest percentage of host cell growth inhibition)” value [1] was 1 (1-<20%), the EC50 [2, 3] was 4.82 µM and the HTS binding score (T. cruzi CYP51; [4]) was 5.

In the case of c1ccc2c(c1)-c1ccccc1C2n1ccnc1 [Compound 36], the “Toxicity score (highest percentage of host cell growth inhibition)” value [1] is reported as 3 (3- 31-40%), the EC50 [2, 3] is reported as 7.24 µM and the HTS binding score (T. cruzi CYP51; [4]) is reported as 1.

With CN(C)C(C/N=C(\S)NCCc1ccccc1)c1cccnc1 (stereo not shown) [Compound 46] the “Toxicity score (highest percentage of host cell growth inhibition)” value [1] was 1 (1-<20%), the EC50 [2, 3] was 8.18 µM and the HTS binding score (T. cruzi CYP51; [4]) was 1.

With CC(C)=CCCC1=CCC2(COC(c3cccnc3)OC2)C(C)C1 (stereo not shown) [Compound 31] the “Toxicity score (highest percentage of host cell growth inhibition)” value [1] was 1 (1-<20%), the EC50 [2, 3] was 6.39 µM and the HTS binding score (T. cruzi CYP51; [4]) was 2.

Brc1ccc(-c2csc(-c3ccncc3)n2)cc1 [Compound 18] was tested, and the “Toxicity score (highest percentage of host cell growth inhibition)” value [1] was 1 (1-<20%), the EC50 [2, 3] was 2.38 µM and the HTS binding score (T. cruzi CYP51; [4]) was 3.

Cc1ccc(OCC(=O)ONC(=N)c2cccnc2)c(Br)c1 [Compound 54] was tested, and the “Toxicity score (highest percentage of host cell growth inhibition)” value [1] was 1 (1-<20%), the EC50 [2, 3] was 9.48 µM and the HTS binding score (T. cruzi CYP51; [4]) was 3.

In the case of Cn1c(SCc2nc(-c3ccc(Cl)cc3)no2)nnc1-c1ccncc1 [Compound 40], the “Toxicity score (highest percentage of host cell growth inhibition)” value [1] is reported as 1 (1-<20%), the EC50 [2, 3] is reported as 7.67 µM and the HTS binding score (T. cruzi CYP51; [4]) is reported as 5.

N#C/C(=C\C=C\c1ccccc1)C(=O)NCc1cccnc1 [Compound 49] was tested, and the “Toxicity score (highest percentage of host cell growth inhibition)” value [1] was 1 (1-<20%), the EC50 [2, 3] was 8.26 µM and the HTS binding score (T. cruzi CYP51; [4]) was 3.

CCCCNC(=O)c1cc(-c2ccncc2)nc2ccccc12 [Compound 50] was tested, and the “Toxicity score (highest percentage of host cell growth inhibition)” value [1] was 4 (4-41-50%), the EC50 [2, 3] was 8.4 µM and the HTS binding score (T. cruzi CYP51; [4]) was 5.

With Nc1c(C(=O)NCCc2c[nH]c3ccccc23)sc2nc(-c3cccnc3)ccc12 [Compound 57] the “Toxicity score (highest percentage of host cell growth inhibition)” value [1] was 1 (1-<20%), the EC50 [2, 3] was 9.74 µM and the HTS binding score (T. cruzi CYP51; [4]) was 2.

For Cc1ccc(CNC(=O)C(=O)NCC(c2cccnc2)N2CCN(Cc3ccccc3)CC2)cc1 (stereo not shown) [Compound 14], the “Toxicity score (highest percentage of host cell growth inhibition)” value [1] was 4 (4-41-50%), the EC50 [2, 3] was 1.67 µM and the HTS binding score (T. cruzi CYP51; [4]) was 2.

For CC1=C(C(=O)OC2CCCC2)C(c2ccncc2)C2=C(O)CC(C)(C)CC2=N1 (stereo not shown) [Compound 2], the “Toxicity score (highest percentage of host cell growth inhibition)” value [1] was 4 (4-41-50%), the EC50 [2, 6] was 0.306 µM and the EC50 [2, 5] was 0.31 µM. For the same compound, the HTS binding score (T. cruzi CYP51; [7]) was 4.

With O=C(NCc1cccnc1)/C(=C\c1cccc(Oc2ccccc2)c1)S(=O)(=O)c1ccccc1 [Compound 52] the “Toxicity score (highest percentage of host cell growth inhibition)” value [1] was 5 (5->50% growth inhibition) and the EC50 [2, 3] was 8.99 µM.

In the case of Clc1ccc(Cl)c(SCCc2ccncc2)c1 [Compound 38], the “Toxicity score (highest percentage of host cell growth inhibition)” value [1] is reported as 2 (2-21-30%) and the EC50 [2, 3] is reported as 7.41 µM.

With Cc1ccc2nc(NC(=O)C3CCN(S(=O)(=O)c4cccnc4)CC3)sc2c1 [Compound 39] the “Toxicity score (highest percentage of host cell growth inhibition)” value [1] was 1 (1-<20%) and the EC50 [2, 3] was 7.64 µM.

In the case of O=C(Cc1coc2ccc3ccccc3c12)NCc1cccnc1 [Compound 44], the “Toxicity score (highest percentage of host cell growth inhibition)” value [1] is reported as 2 (2-21-30%) and the EC50 [2, 3] is reported as 7.93 µM.

In the case of C/C(=N\OC(=O)c1c(-c2ccccc2Cl)noc1C)c1ccncc1 [Compound 33], the “Toxicity score (highest percentage of host cell growth inhibition)” value [1] is reported as 3 (3- 31-40%) and the EC50 [2, 3] is reported as 6.78 µM.

For CC(C)/C=C1\CC/C(=C\c2ccncc2)C1=O [Compound 35], the “Toxicity score (highest percentage of host cell growth inhibition)” value [1] was 1 (1-<20%) and the EC50 [2, 3] was 7.15 µM.

With O=C(/C=C/c1cccs1)c1ccncc1 [Compound 56] the “Toxicity score (highest percentage of host cell growth inhibition)” value [1] was 3 (3- 31-40%), the EC50 [2, 3] was 9.62 µM and the HTS binding score (T. cruzi CYP51; [4]) was 3.

In the case of CC(C)(C)/C(=C\n1ccnc1)c1ccc(C(F)(F)F)cc1 [Compound 8], the “Toxicity score (highest percentage of host cell growth inhibition)” value [1] is reported as 3 (3- 31-40%), the EC50 [2, 6] is reported as 0.754 µM and the EC50 [2, 5] is reported as 0.75 µM.

For Brc1ccc(OCCCn2ccnc2)cc1 [Compound 25], the “Toxicity score (highest percentage of host cell growth inhibition)” value [1] was 2 (2-21-30%) and the EC50 [2, 5] was 3.66 µM.

With O=S(=O)(NCc1csc(-c2cccnc2)n1)c1ccc(Br)cc1 [Compound 32] the “Toxicity score (highest percentage of host cell growth inhibition)” value [1] was 2 (2-21-30%) and the EC50 [2, 3] was 6.5 µM.

With Oc1cccc(Nc2nc(-c3ccncc3)cs2)c1 [Compound 37] the “Toxicity score (highest percentage of host cell growth inhibition)” value [1] was 4 (4-41-50%) and the EC50 [2, 3] was 7.33 µM.
